What follows are compounds tested against Human recombinant carboxy-terminal his-tagged LDHA (amino acids 2-332) (Homo sapiens, UniProt P00338) (assay: LDHA enzyme inhibition assay (NADH fluorescence)). Details: LDHA IC50 (μM), 1 nM LDHA, NADH and pyruvate, stereochemistry of tested sample given.

Compared with `COC(C)(C)CCOc1cccc(C2(c3ccsc3)CC(=O)C(Sc3ccccc3Cl)C(=O)N2)n1` (centres unmarked) [Example 249, 3-(2-chlorophenyl)sulfanyl-6-[6-(3-methoxy-3-methyl-butoxy)-2-pyridyl]-6-(3-thienyl)piperidine-2,4-dione], `CC/C=C/COc1cccc(C2(c3ccsc3)CC(=O)C(Sc3ccccc3Cl)C(=O)N2)n1` (centres unmarked) [Example 250, 3-(2-chlorophenyl)sulfanyl-6-(6-pent-2-enoxy-2-pyridyl)-6-(3-thienyl) piperidine-2,4-dione] is 2.8-fold lower in IC50: 0.099 µM for the first, 0.036 µM for the second.

Going from `O=C1CC(c2ccsc2)(c2cccc(OCC3CCC(CO)CC3)n2)NC(=O)C1Sc1ccccc1Cl` (centres unmarked) [Example 253] to `O=C1CC(c2ccsc2)(c2cccc(OC3CCC(F)(F)CC3)n2)NC(=O)C1Sc1ccccc1Cl` (centres unmarked) [Example 306, 3-((2-chlorophenyl)thio)-6-(6-((4,4-difluoro-cyclohexyl)oxy)pyridin-2-yl)-6-(thiophen-3-yl)piperidine-2,4-dione], the IC50 rises from 0.081 µM to 0.129 µM (1.6-fold). The first is the more potent here.

Compared with `COc1cc(-c2cccc(C3(c4ccsc4)CC(=O)C(Sc4ccccc4Cl)C(=O)N3)n2)ccc1F` (centres unmarked) [Example 255, 3-((2-chlorophenyl)thio)-6-(6-(4-fluoro-3-methoxy-phenyl)pyridin-2-yl)-6-(thiophen-3-yl)piperidine-2,4-dione], `COc1cc(Cc2cccc(C3(c4ccsc4)CC(=O)C(Sc4ccccc4Cl)C(=O)N3)n2)ccc1F` (centres unmarked) [Example 259, 3-((2-chlorophenyl)thio)-6-(6-(4-fluoro-3-methoxy-benzyl)pyridin-2-yl)-6-(thiophen-3-yl)piperidine-2,4-dione] is 9.3-fold lower in IC50: 0.102 µM for the first, 0.011 µM for the second. The second is the more potent here.

Compared with `O=C1CC(c2ccsc2)(c2cccc(Cc3ccc(F)cc3)n2)NC(=O)C1Sc1ccccc1Cl` (centres unmarked) [Example 257, 3-((2--chlorophenyl)thio)-6-(6-(4-fluorobenzyl)pyridin-2-yl)-6-(thiophen-3-yl)piperidine-2,4-dione], `O=C1CC(c2ccsc2)(c2cccc(OCc3ccc(F)cc3)n2)NC(=O)C1Sc1ccccc1Cl` (centres unmarked) [Example 300, 3-((2-chlorophenyl)thio)-6-(6-((4-fluorobenzyl)oxy)pyridin-2-yl)-6-(thiophen-3-yl)piperidine-2,4-dione] is 9-fold higher in IC50: 0.016 µM for the first, 0.144 µM for the second.

`O=C1CC(c2ccsc2)(c2cccc(Cc3ccc(F)cc3F)n2)NC(=O)C1Sc1ccccc1Cl` (centres unmarked) [Example 258, 3-((2-chlorophenyl)thio)-6-(6-(2,4-difluorobenzyl)pyridin-2-yl)-6-(thiophen-3-yl)piperidine-2,4-dione] and `CCN(c1ccc(F)cc1)c1cccc(C2(c3ccsc3)CC(=O)C(Sc3ccccc3Cl)C(=O)N2)n1` (centres unmarked) [Example 263, 3-((2-chlorophenyl)thio)-6-(6-(ethyl(4-fluorophenyl)amino)pyridin-2-yl)-6-(thiophen-3-yl)piperidine-2,4-dione] are within 1.5-fold of each other in IC50: 0.087 µM for the first, 0.086 µM for the second.

Going from `O=C1CC(c2ccsc2)(c2cccc(-c3ccncc3)n2)NC(=O)C1Sc1ccccc1Cl` (centres unmarked) [Example 260, 6-([2,4′-bipyridin]-6-yl)-3-((2-chlorophenyl)thio)-6-(thiophen-3-yl)piperidine-2,4-dione] to `O=C1CC(c2ccsc2)(c2cccc(-c3ccnc(N4CCOCC4)c3)n2)NC(=O)C1Sc1ccccc1Cl` (centres unmarked) [Example 261, 3-((2-chlorophenyl)thio)-6-(2′-morpholino-[2,4′-bipyridin]-6-yl)-6-(thiophen-3-yl)piperidine-2,4-dione], the IC50 rises from 0.006 µM to 0.039 µM (6.5-fold).

Going from `Cc1cc(Nc2cccc(C3(c4ccsc4)CC(=O)C(Sc4ccccc4Cl)C(=O)N3)n2)n(C)n1` (centres unmarked) [Example 264, 3-((2-chlorophenyl)thio)-6-(6-((1,3-dimethyl-1H-pyrazol-5-yl)amino)pyridin-2-yl)-6-(thiophen-3-yl)piperidine-2,4-dione] to `Cc1cc(Nc2cccc(C3(c4ccsc4)CC(=O)C(Sc4ccccc4Cl)C(=O)N3)n2)nn1C` (centres unmarked) [Example 272, 3-((2-chlorophenyl)thio)-6-(6-((1,5-dimethyl-1H-pyrazol-3-yl)amino)pyridin-2-yl)-6-(thiophen-3-yl) piperidine-2,4-dione], the IC50 rises from 0.077 µM to 0.459 µM (6-fold). The first is the more potent here.

Going from `O=C1CC(c2ccsc2)(c2cccc(CC3CCOCC3)n2)NC(=O)C1Sc1ccccc1Cl` (centres unmarked) [Example 267, 3-((2-chlorophenyl)thio)-6-(6-((tetrahydro-2H-pyran-4-yl)methyl)pyridin-2-yl)-6-(thiophen-3-yl) piperidine-2,4-dione] to `O=C1CC(c2ccsc2)(c2cccc(NS(=O)(=O)N3CCC3)n2)NC(=O)C1Sc1ccccc1Cl` (centres unmarked) [Example 286, N-(6-(5-((2-chlorophenyl)thio)-4,6-dioxo-2-(thiophen-3-yl)piperidin-2-yl)pyridin-2-yl)azetidine-1-sulfonamide], the IC50 falls from 1.64 µM to 0.057 µM (29-fold). The second is the more potent here.

`Cn1nccc1Nc1cccc(C2(c3ccsc3)CC(=O)C(Sc3ccccc3Cl)C(=O)N2)n1` (centres unmarked) [Example 269, 3-((2-chlorophenyl)thio)-6-(6-((1-methyl-1H-pyrazol-5-yl)amino)pyridin-2-yl)-6-(thiophen-3-yl)piperidine-2,4-dione] and `Cn1ccc(Nc2cccc(C3(c4ccsc4)CC(=O)C(Sc4ccccc4Cl)C(=O)N3)n2)n1` (centres unmarked) [Example 270, 3-((2-chlorophenyl)thio)-6-(6-((1-methyl-1H-pyrazol-3-yl)amino)pyridin-2-yl)-6-(thiophen-3-yl)piperidine-2,4-dione] are within 1.5-fold of each other in IC50: 0.073 µM for the first, 0.099 µM for the second.

`Cn1cnc(Nc2cccc(C3(c4ccsc4)CC(=O)C(Sc4ccccc4Cl)C(=O)N3)n2)n1` (centres unmarked) [Example 271, 3-((2-chlorophenyl)thio)-6-(6-((1-methyl-1H-1,2,4-triazol-3-yl)amino)pyridin-2-yl)-6-(thiophen-3-yl) piperidine-2,4-dione] and `Cn1ccnc1Nc1cccc(C2(c3ccsc3)CC(=O)C(Sc3ccccc3Cl)C(=O)N2)n1` (centres unmarked) [Example 277, 3-((2-chlorophenyl)thio)-6-(6-((1-methyl-1H-imidazol-2-yl)amino)pyridin-2-yl)-6-(thiophen-3-yl)piperidine-2,4-dione] are within 1.5-fold of each other in IC50: 0.355 µM for the first, 0.337 µM for the second.

First: COc1ccc(N(C)c2cccc(C3(c4ccsc4)CC(=O)C(Sc4ccccc4Cl)C(=O)N3)n2)cc1 (centres unmarked) [Example 273, 3-((2-chlorophenyl)thio)-6-(6-((4-methoxyphenyl) (methyl)amino)pyridin-2-yl)-6-(thiophen-3-yl) piperidine-2,4-dione]
Second: CN(c1ccc(Cl)cc1)c1cccc(C2(c3ccsc3)CC(=O)C(Sc3ccccc3Cl)C(=O)N2)n1 (centres unmarked) [Example 279, 6-(6-((4-chlorophenyl) (methyl)amino)pyridin-2-yl)-3-((2-chlorophenyl)thio)-6-(thiophen-3-yl) piperidine-2,4-dione]
The IC50 of the first is 3.8-fold lower: 0.072 µM for the first, 0.272 µM for the second.

`COc1cccc(N(C)c2cccc(C3(c4ccsc4)CC(=O)C(Sc4ccccc4Cl)C(=O)N3)n2)c1` (centres unmarked) [Example 274, 3-((2-chlorophenyl)thio)-6-(6-((3-methoxyphenyl) (methyl)amino)pyridin-2-yl)-6-(thiophen-3-yl) piperidine-2,4-dione] and `CN(c1cccc(C(F)(F)F)c1)c1cccc(C2(c3ccsc3)CC(=O)C(Sc3ccccc3Cl)C(=O)N2)n1` (centres unmarked) [Example 275, 3-((2-chlorophenyl)thio)-6-(6-(methyl(3-(trifluoromethyl)phenyl)amino)pyridin-2-yl)-6-(thiophen-3-yl)piperidine-2,4-dione] are within 1.5-fold of each other in IC50: 0.157 µM for the first, 0.233 µM for the second.

`Cc1cnc(Nc2cccc(C3(c4ccsc4)CC(=O)C(Sc4ccccc4Cl)C(=O)N3)n2)[nH]1` (centres unmarked) [Example 276, 3-((2-chlorophenyl)thio)-6-(6-((5-methyl-1H-imidazol-2-yl)amino)pyridin-2-yl)-6-(thiophen-3-yl)piperidine-2,4-dione] and `Cc1cnc(Nc2cccc(C3(c4ccsc4)CC(=O)C(Sc4ccccc4Cl)C(=O)N3)n2)s1` (centres unmarked) [Example 288, 3-((2-chlorophenyl)thio)-6-(6-((5-methylthiazol-2-yl)amino)pyridin-2-yl)-6-(thiophen-3-yl)piperidine-2,4-dione] are within 1.5-fold of each other in IC50: 0.175 µM for the first, 0.141 µM for the second.

Going from `Cc1cnc(N)n1-c1cccc(C2(c3ccsc3)CC(=O)C(Sc3ccccc3Cl)C(=O)N2)n1` (centres unmarked) [Example 278, 6-(6-(2-amino-5-methyl-1H-imidazol-1-yl)pyridin-2-yl)-3-((2-chloro-phenyl)thio)-6-(thiophen-3-yl)piperidine-2,4-dione] to `Cc1csc(Nc2cccc(C3(c4ccsc4)CC(=O)C(Sc4ccccc4Cl)C(=O)N3)n2)n1` (centres unmarked) [Example 287, 3-((2-chlorophenyl)thio)-6-(6-((4-methylthiazol-2-yl)amino)pyridin-2-yl)-6-(thiophen-3-yl)piperidine-2,4-dione], the IC50 falls from 0.339 µM to 0.01 µM (34-fold). The second is the more potent here.

First: O=C1CC(c2ccsc2)(c2cccc(Nc3cccc(CO)c3)n2)NC(=O)C1Sc1ccccc1Cl (centres unmarked) [Example 290]
Second: O=C1CC(c2ccsc2)(c2cccc(N[C@H](CO)c3ccc(F)c(Cl)c3)n2)NC(=O)C1Sc1ccccc1Cl (stereo partly drawn) [Example 296, 6-(6-(((S)-1-(3-chloro-4-fluorophenyl)-2-hydroxy-ethyl)amino)pyridin-2-yl)-3-((2-chlorophenyl)thio)-6-(thiophen-3-yl) piperidine-2,4-dione]
The IC50 of the first is 2.3-fold lower: 0.017 µM for the first, 0.039 µM for the second.

Compared with `O=C1CC(c2ccsc2)(c2cccc(Nc3ccc(F)cc3)n2)NC(=O)C1Oc1ccccc1Cl` (centres unmarked) [Example 295, 3-(2-chlorophenoxy)-6-[6-(4-fluoroanilino)-2-pyridyl]-6-(3-thienyl)piperidine-2,4-dione], `CCC(Nc1cccc(C2(c3ccsc3)CC(=O)C(Sc3ccccc3Cl)C(=O)N2)n1)c1ccc(F)cc1` (centres unmarked) [Example 304, 3-((2-chlorophenyl)thio)-6-(6-((1-(4-fluoro-phenyl)propyl)amino)pyridin-2-yl)-6-(thiophen-3-yl)piperidine-2,4-dione] is 3.9-fold lower in IC50: 0.081 µM for the first, 0.021 µM for the second.

First: CC[C@@H](Nc1cccc(C2(c3ccsc3)CC(=O)C(Sc3ccccc3Cl)C(=O)N2)n1)c1ccc(F)c(Cl)c1 (stereo partly drawn) [Example 297, 6-(6-(((R)-1-(3-chloro-4-fluorophenyl)propyl)amino)pyridin-2-yl)-3-((2-chlorophenyl)thio)-6-(thiophen-3-yl)piperidine-2,4-dione]
Second: CCC(Oc1cccc(C2(c3ccsc3)CC(=O)C(Sc3ccccc3Cl)C(=O)N2)n1)c1ccc(F)cc1 (centres unmarked) [Example 305]
The IC50 of the first is 6-fold higher: 0.149 µM for the first, 0.025 µM for the second. The second is the more potent here.

Work on `CC(Oc1cccc(C2(c3ccsc3)CC(=O)C(Sc3ccccc3Cl)C(=O)N2)n1)c1ccc(F)cc1` (centres unmarked) [Example 301] yielded an IC50 of 0.092 µM.
